Experimental data reported in US8853193B2, “Thienopyrimidines containing a substituted alkyl group for pharmaceutical compositions” (Boehringer Ingelheim International GmbH, priority 2010, dated 2014).
Structures can show the parent of a compound that is named as a salt.

target: human Mnk2a (Homo sapiens (Human), UniProt Q9HBH9); assay: Mnk2a in vitro kinase assay (indirect competitive fluorescence polarization); assay type: biochemical; details: pre-activated GST-Mnk2a 2.5 nM, 20 μM ATP, 30 μM substrate peptide; read-out: MNK2 IC50
Method: Inhibitory potency of compounds against Mnk1, Mnk2a and other kinases was assessed with assays based on a format known to those skilled in the art as the indirect (competitive) fluorescence polarization. The assay detection system comprises a small fluorophore-labeled phospho-peptide (termed ligand) bound to a phospho-specific antibody. The product generated by the kinase reaction competes with the ligand for antibody binding. Based on the larger molecular volume of the bound ligand, which results in a lower rotation rate in solution, its emitted light has a higher degree of polarization than the one from the free ligand.
In brief, the open reading frames of human Mnk1 and Mnk2a were amplified from cDNA using the forward/reverse primer pairs
(utilized restriction sites underlined), respectively, and cloned into the BamHI and SalI sites of the vector pGEX-4T1 (Amersham, Sweden, cat. no. 27-4580-01). These constructs allow prokaryotic expression of Mnk1 or Mnk2a as fusion protein with a N-terminal glutathione S-transferase (GST) tag, referred to as GST-Mnk1 or GST-Mnk2a. The following expression and purification procedure was identical for GST-Mnk1 and GST-Mnk2a, referring in general to GST-Mnk, when not distinguishing between the two isoforms. Expression of GST-Mnk was in E. coli BL21 (Merck Biosciences, Germany, cat. no. 69449). Cells were grown in LB-Bouillon (Merck, Germany, cat. no. 1.10285) supplemented with 100 μg/ml ampicillin (Sigma, Germany, cat. no. A9518) at 37° C. […] Cells harvested by centrifugation were resuspended in 10 ml lysis buffer (50 mM tris(hydroxymethyl)aminomethane hydrochloride (Tris/HCl, Sigma, Germany, cat. no. T5941) pH 7.5, 300 mM sodium chloride (NaCl, Sigma, Germany, cat. no. S7653), 5% (w/v) glycerol (Sigma, Germany, cat. no. G5516), 3 mM DTT dithiotreitol (DTT, Sigma, Germany, cat. no. D9779)) per gram wet weight cell pellet. Lysates were prepared by disruption of cells with a sonifier and subsequent clearing by centrifugation at 38000 g for 45 min at 4° C.
The lysate was applied to a GSTPrep FF 16/10 column (Amersham, Sweden, cat. no. 17-5234-01) equilibrated with lysis buffer. Removal of unbound material was with 3 column volumes (CV) lysis buffer. Elution was with 2 CV of elution buffer (50 mM Tris/HCl pH 7.5, 300 mM NaCl, 5% (w/v) glycerol, 20 mM glutathione (Sigma, Germany, cat. no. G4251)). Peak fractions were pooled and the protein transferred into storage buffer (50 mM Tris/HCl pH 7.5, 200 mM NaCl, 0.1 mM ethylene glycol[…] bis(2-aminoethylether)-N,N,N′,N′-tetraacetic acid (EGTA, Aldrich, Germany, cat. no. 23, 453-2), 1 mM DTT, 10% (w/v) glycerol, 0.5 M sucrose (Sigma, Germany, cat. no. S0389) by gel filtration on a PD10 desalting column (Amersham, Sweden, cat. no. 17-0851-01). Aliquots were shock frozen in liquid nitrogen and stored at −80° C.
Activation of Mnk1 and Mnk2a was at a concentration of 2.5 μM of either purified GST-Mnk1 or GST-Mnk2a by incubation with 150 nM pre-activated NHis-ERK2 (see ERK2 assay for preparation) and 50 μM adenosine triphosphate (ATP, Sigma, cat. no. A2699) in a buffer comprising 20 mM N-(2-hydroxyethyl)piperazine-N′-(2-ethanesulfonic acid) (HEPES, Fluka, Germany, cat. no 54459)/potassium hydroxide (KOH, Roth, Germany, cat. no 6751.1) pH 7.4, 10 mM magnesium chloride (MgCl2, Sigma, Germany, cat. no. M2670), 0.25 mM DTT, 0.05% (w/v) polyoxyethylene 20 stearylether (Brij 78, Sigma, Germany, cat. no. P4019) (HMDB buffer) for 45 min at 30° C. After the incubation, the preparation was aliquoted into single-use samples, shock frozen in liquid nitrogen, stored at −80° C. and utilized for Mnk1 or Mnk2a kinase assays as detailed below.
The serine residue phosphorylated by Mnk kinases is underlined.

Chain of human Mnk2a (Q9HBH9 whole entry): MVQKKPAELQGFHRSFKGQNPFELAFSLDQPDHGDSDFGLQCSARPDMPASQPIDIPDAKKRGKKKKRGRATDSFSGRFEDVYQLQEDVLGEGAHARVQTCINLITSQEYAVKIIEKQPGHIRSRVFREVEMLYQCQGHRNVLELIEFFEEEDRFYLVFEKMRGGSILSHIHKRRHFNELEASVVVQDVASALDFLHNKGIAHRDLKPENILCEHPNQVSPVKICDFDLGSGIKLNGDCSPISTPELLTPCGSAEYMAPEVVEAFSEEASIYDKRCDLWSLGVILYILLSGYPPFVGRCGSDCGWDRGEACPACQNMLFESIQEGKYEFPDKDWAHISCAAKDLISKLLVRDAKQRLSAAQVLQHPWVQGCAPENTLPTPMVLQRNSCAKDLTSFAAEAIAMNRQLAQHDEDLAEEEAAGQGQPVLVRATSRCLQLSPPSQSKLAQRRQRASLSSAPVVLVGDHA

**Q.** How did the IC50 turn out when `Cc1c(C(=O)NCCO)sc2ncnc(Nc3ccc(C#N)cc3OC(CF)CF)c12` [Compound 51, 4-(4-Cyano-2-(2-fluoro-1-fluoromethyl-ethoxy)-phenylamino]-5-methyl-thieno[2,3-d]pyrimidine-6-carboxylic acid (2-hydroxy-ethyl)-amide] was run?
**A.** 10 nM

**Q.** For `Cc1c(C(=O)NCCCN(C)C)sc2ncnc(Nc3cccnc3OCC3(CC#N)CC3)c12` [Compound 33, 4-(2-((1-(Cyanomethyl)cyclopropyl)methoxy)pyridin-3-ylamino)-N-(3-(dimethylamino)propyl)-5-methylthieno[2,3-d]pyrimidine-6-carboxamide hydrochloride], which IC50 is on record?
**A.** 47 nM

**Q.** `Cc1c(C(=O)O)sc2ncnc(Nc3cccnc3OC(C)C(F)(F)F)c12` (stereo not shown) [Compound 21-2, 5-Methyl-4-(2-(1,1,1-trifluoropropan-2-yloxy)pyridin-3-ylamino)thieno[2,3-d]pyrimidine-6-carboxylic acid] was tested. Which IC50 did it give?
**A.** 15 nM

**Q.** How did the IC50 turn out when `Cc1c(C(=O)NCCN(C)C)sc2ncnc(Nc3ccc(F)cc3OC(CF)CF)c12` [Compound 23-7, 4-(2-(1,3-difluoro-propan-2-yloxy)-4-fluorophenylamino)-N-(2-(dimethylamino)-ethyl)-5-methylthieno-[2,3-d]-pyrimidine-6-carboxamide] was run?
**A.** 17 nM

**Q.** Which IC50 does the source give for `Cc1c(C(=O)NCCCN(C)C)sc2ncnc(Nc3ccc(F)cc3OC(C)CNC(=O)OC(C)(C)C)c12` (stereo not shown) [Compound 1-4, tert-Butyl 2-(2-(6-(3-(dimethymino)propyl-carbamoyl)-5-methyl-thieno[2,3-d]pyrimidin-4-ylamino)-5-fluoro-phenoxy)propyl-carbamate] here?
**A.** 294 nM

**Q.** How did the IC50 turn out when `COC(=O)c1sc2ncnc(Nc3ccc(F)cc3OC(CN)CNC(C)=O)c2c1C` (stereo not shown) [Compound 19-1, Methyl 4-(2-(1-acetamido-3-aminopropan-2-yloxy)-4-fluorophenylamino)-5-methylthieno[2,3-d]pyrimidine-6-carboxylate trifluoroacetate] was run?
**A.** 1530 nM

**Q.** With `Cc1c(C(N)=O)sc2ncnc(Nc3cccnc3OCCO)c12` [Compound 29-3, 4-(2-(2-Hydroxyethoxy)pyridin-3-ylamino)-5-methylthieno[2,3-d]pyrimidine-6-carboxamide] as the compound, how does the IC50 read?
**A.** 86 nM

**Q.** For `COC(=O)c1sc2ncnc(Nc3ccc(F)cc3OC(C)C(=O)NCCN)c2c1C` (stereo not shown) [Compound 58, 4-{2-[1-(2-Amino-ethylcarbamoyl)-ethoxyl]-4-fluoro-phenylamino}-5-methyl-thieno[2,3-d]pyrimidine-6-carboxylic acid methyl ester], which IC50 is on record?
**A.** 119 nM

**Q.** How did the IC50 turn out when `Cc1c(C(=O)NCCO)sc2ncnc(Nc3ccc(F)cc3OC(CF)CF)c12` [Compound 23-8] was run?
**A.** 8 nM

**Q.** How did the IC50 turn out when `COC(=O)c1sc2ncnc(Nc3ccc(F)cc3OC(C)CNC(=O)C(C)C)c2c1C` (stereo not shown) [Compound 3-5, Methyl 4-(4-fluoro2-(1-isobutyramidopropan-2-yloxy)phenylamino)-5-methylthieno[2,3-d]-pyrimidine-6-carboxylate] was run?
**A.** 443 nM

**Q.** `Cc1c(C(=O)NCCCN(C)C)sc2ncnc(Nc3ccc(F)cc3OCC3CC3(F)F)c12` (stereo not shown) [Compound 32-22] was tested. Which IC50 did it give?
**A.** 36 nM

**Q.** With `Cc1c(C(=O)N[C@H]2C[C@@H]2N)sc2ncnc(Nc3cccnc3OC(C)C)c12` [Compound 36-6, N-((1S,2S)-2-Aminocyclopropyl)-4-(2-isopropoxypyridin-3-ylamino)-5-methylthieno[2,3-d]pyrimidine-6-carboxamide] as the compound, how does the IC50 read?
**A.** 55 nM

**Q.** Which IC50 does the source give for `COCC(C)Oc1cc(F)ccc1Nc1ncnc2sc(C(N)=O)c(C)c12` (stereo not shown) [Compound 32-37] here?
**A.** 8 nM

**Q.** With `COCC(C)Oc1cc(F)ccc1Nc1ncnc2sc(C(=O)O)c(C)c12` (stereo not shown) [Compound 32-10] as the compound, how does the IC50 read?
**A.** 18 nM

**Q.** How did the IC50 turn out when `COC(=O)c1sc2ncnc(Nc3ccc(F)cc3OC(C)C(=O)O)c2c1C` (stereo not shown) [Compound 55, 4-[2-(1-Carboxy-ethoxy)-4-fluoro-phenylamino]-5-methyl-thieno[2,3-d]pyrimidine-6-carboxylic acid methyl ester] was run?
**A.** 5400 nM

**Q.** With `Cc1c(C(=O)NCCCN2CCOCC2)sc2ncnc(Nc3cccnc3OC(C)C)c12` [Compound 36-4] as the compound, how does the IC50 read?
**A.** 44 nM

**Q.** Which IC50 does the source give for `Cc1c(C(=O)NCCCN(C)C)sc2ncnc(Nc3ccc(C#N)cc3OC(CF)CF)c12` [Compound 49, 4-(4-Cyano-2-(2-fluoro-1-fluoromethyl-ethoxy)-phenylamino]-5-methyl-thieno[2,3-d]pyrimidine-6-carboxylic acid (3-dimethylamino-propyl)-amide] here?
**A.** 8 nM

**Q.** With `Cc1c(C(=O)NCCCN(C)C)sc2ncnc(Nc3ccc(F)cc3OCC3CCOCC3)c12` [Compound 26-3] as the compound, how does the IC50 read?
**A.** 790 nM

**Q.** For `COCC(C)Oc1ncccc1Nc1ncnc2sc(C(=O)NCCO)c(C)c12` (stereo not shown) [Compound 28-4, N-(2-hydroxy-ethyl)-4-(2-(1-methoxy-propan-2-yloxy)pyridin-3-ylamino)-5-methylthieno-[2,3-d]-pyrimidine-6-carbox-amide], which IC50 is on record?
**A.** 78 nM

**Q.** `Cc1c(C(=O)NCCCN(C)C)sc2ncnc(Nc3ccc(F)cc3OC(C)CC(C)(C)O)c12` (stereo not shown) [Compound 20-3, N-(3-(Dimethylamino)propyl)-4-(4-fluoro-2-(4-hydroxy-4-methylpentan-2-yloxy)phenylamino)-5-methyl-thieno[2,3-d]pyrimidine-6-carboxamide trifluoroacetate] was tested. Which IC50 did it give?
**A.** 59 nM

**Q.** How did the IC50 turn out when `COCC(C)Oc1ncccc1Nc1ncnc2sc(C(=O)NCCCN(C)C)c(C)c12` (stereo not shown) [Compound 28-5, N-(3-(di-methylamino)propyl)-4-(2-(1-methoxy-propan-2-yloxy)pyridin-3-ylamino)-5-methlthieno-[2,3-d]pyrimi-dine-6-carboxamide hydrochloride] was run?
**A.** 93 nM

**Q.** Which IC50 does the source give for `Cc1c(C(N)=O)sc2ncnc(Nc3ccc(F)cc3OC(C)CF)c12` (stereo not shown) [Compound 32-28] here?
**A.** 3 nM

**Q.** How did the IC50 turn out when `CNC(=O)CNC(=O)c1sc2ncnc(Nc3cccnc3OC(C)C)c2c1C` [Compound 36-7, 4-(2-Isopropoxypyridin-3ylamino)-5-methyl-N-(2-(methylamino)-2-oxoethyl)thieno[2,3-d]pyrimidine-6-carboxamide] was run?
**A.** 27 nM

**Q.** Which IC50 does the source give for `Cc1c(C(=O)O)sc2ncnc(Nc3ccc(F)cc3OC(C)CF)c12` (stereo not shown) [Compound 32.7] here?
**A.** 5 nM

**Q.** With `Cc1c(C(=O)NCCCN(C)C)sc2ncnc(Nc3cccnc3OCC(C)F)c12` (stereo not shown) [Compound 27-4, N-(3-(dimethylamino)-propyl)-4-(2-(2-fluoro-propoxy)pyridin-3-ylamino)-5-methyl-thieno[2,3-d]pyrimidine-6-carboxamide hydrochloride] as the compound, how does the IC50 read?
**A.** 73 nM

**Q.** How did the IC50 turn out when `Cc1c(C(=O)NCCCN(C)C)sc2ncnc(Nc3ccc(F)cc3OC(CF)CF)c12` [Compound 23-6, 4-(2-(1,3-difluoro-propan-2-yloxy)-4-fluorophenylamino)-N-(3-(dimethylamino)-propyl)-5-methyl-thieno[2,3-d]-pyrimidine-6-carboxamide] was run?
**A.** 10 nM

**Q.** For `Cc1c(C(=O)NC2CCN(C)CC2)sc2ncnc(Nc3cccnc3OC(C)C)c12` [Compound 36-10, 4-(2-Isopropoxypyridin-3ylamino)-5-methyl-N-(1-methylpiperidin-4-yl)thieno[2,3-d]pyrimidine-6-carboxamide], which IC50 is on record?
**A.** 32 nM

**Q.** How did the IC50 turn out when `Cc1c(C(=O)NCc2cn(C)cn2)sc2ncnc(Nc3cccnc3OC(C)C)c12` [Compound 36-15, 4-(2-Isopropoxypyridin-3ylamino)-5-methyl-N-((1-methyl-1H-imidazol-4-yl)methyl) thieno[2,3-d]pyrimidine-6-carboxamide] was run?
**A.** 24 nM
